Assay results from patent US9902986B2, “Enterobactin conjugates and uses thereof” (Massachusetts Institute of Technology, priority 2013, dated 2018).

Experiments:
[1] = tested on: P. aeruginosa K648 (pvd-, pch-); type: cell-based, Pseudomonas aeruginosa
Procedure: (§1) General microbiology methods are as described herein or according to processes known in the art. […] Bacterial growth was assayed by measuring OD600 using a BioTek Synergy HT plate reader. Each well condition was prepared in duplicate and three independent replicates of each assay were conducted on different days. The resulting mean OD600 are reported and the error bars are the standard deviation of the mean obtained from the three independent replicates.
(§2) It was next sought to determine whether the enterobactin-cargo conjugates provided growth recovery for Pseudomonas aeruginosa PAO1. This Gram-negative opportunistic human pathogen synthesizes and exports two siderophores, pyoverdine (pvd) and pyochelin (pch), and employs multiple additional mechanisms for iron acquisition.^72,73 P. aeruginosa utilizes enterobactin as a xenosiderophore, and the genes pfeA^74,75 and pirA^76 encode outer membrane enterobactin transporters. Similar to the E. coli experiments, P. aeruginosa strains deficient in siderophore production or utilization were used in growth recovery assays.

[2] = tested on: E. coli ATCC 33475 (ent-); type: cell-based, Escherichia coli; settings: 10 μM
Procedure: as §1
(§3) Three non-pathogenic E. coli strains were employed that are defective in enterobactin synthesis, enterobactin transport, or ferric enterobactin utilization in growth recovery assays. E. coli ATCC 33475 (ent-) cannot biosynthesize enterobactin, but retains the capacity to import and metabolize the siderophore.^71 E. coli H1187 (fepA-) lacks the outer membrane enterobactin receptor. E. coli K-12 JW0576 (fes-) can accumulate ferric enterobactin, but cannot release the iron because it is deficient in the enterobactin esterase Fes. As a result of these defects in iron metabolism, all three strains grow poorly under conditions of iron limitation.^71 The iron chelator 2,2′-dipyridyl (dipyridyl, DP) was used to generate iron-deficient conditions and promote expression of siderophore transport machinery in the growth recovery assays.

[3] = tested on: human colon epithelial T84 cells; test: Cytotoxicity study using MTT; settings: 10 μM, 24 h
Procedure: Colon epithelial T84 cell line (purchase from ATCC) were grown in DMEM/F12 medium containing penicillin (100 I.U./mL) and streptomycin (100 μg/mL). The cells were passed and plated in 96-well flat-bottom plates ˜16 h before treatment. Each well contained 90 µL of the cell culture at a density of 10^5 cells/mL. Stock solutions of the tested conjugates (e.g., Ent-Amp) were prepared in sterile filtered 10% DMSO/water, and 10 μL of the each solution was added to each well. The plate was incubated at 37° C. and under 5% CO2 for 24 h and 20 μL of MTT (5 mg/mL in sterile PBS) was added to each well. The plate was incubated at 37° C. for another 4 h, and the supernatant was removed from each well. DMSO (100 μL) was added to the wells to afford a purple solution, and the absorbance at 550 nm was recorded by using a plate reader. Blank readings were generated by wells that only contain the growth medium but no cells. The assay was repeated in three independent trials, and the resulting mean and standard errors are reported. […] Ent-Amp, Ent, and Amp were incubated with human colon epithelial T84 cells for 24 h.
In another exemplary experiment, the human colon epithelial T84 cell line was purchased from ATCC and cultured in 1:1 DMEM/F12 medium with 10% fetal bovine serum, 1% penicillin, and streptomycin (v/v, ATCC). The cells were grown to approximately 95% confluency and treated with 3 mL of trypsin-EDTA (Corning). A 12-mL portion of fresh medium was added to the detached cells, and the T84 cell suspension was centrifuged (600 rpm×5 min, 37° C.). The supernatant was discarded, and the cell pellet was resuspended in 6 mL of the fresh culture media. The concentration of cells was quantified by using a manual hemocytometer (VWR International) and adjusted to 1×10^5 cells/mL. A 90-μL aliquot of T84 cells were then added to 96-well plates and incubated at 37° C. and 5% CO2 for 24 h. […] DMSO (100 μL) was added to each well and the absorbance at 550 nm was recorded by using a plate reader. Blank readings were recorded on wells that only contained the medium. […]

[4] = three catecholate groups; cited from earlier work
[5] = tested on: P. aeruginosa K407 (pvd-, pFr-); test: Growth recovery assay, P. aeruginosa (pfeA-); type: cell-based, Pseudomonas aeruginosa; settings: 600 μM DP; for growth inhibition of P. aeruginosa (pfeA-): micromolar concentrations
Procedure: as §1, §2

E. coli H1187 (fepA-) = test: Growth recovery assay, E. coli (fepA-); type: cell-based, Escherichia coli; settings: 200 μM DP
Procedure: as §1, §3

[6] = tested on: E. coli K-12 JW0576 (fes-); test: Growth recovery assay, E. coli (fes-); type: cell-based, Escherichia coli; settings: 200 μM DP
Procedure: as §1, §3

FepA = FepA (Escherichia coli, UniProt P05825); settings: E. coli outer membrane transporter; cited from earlier work
Lipocalin-2 (lcn2) = Lipocalin-2 (lcn2) (Homo sapiens, UniProt P80188); settings: cited from earlier work
Lipocalin-2 (lcn2), sequence (P80188 21-198): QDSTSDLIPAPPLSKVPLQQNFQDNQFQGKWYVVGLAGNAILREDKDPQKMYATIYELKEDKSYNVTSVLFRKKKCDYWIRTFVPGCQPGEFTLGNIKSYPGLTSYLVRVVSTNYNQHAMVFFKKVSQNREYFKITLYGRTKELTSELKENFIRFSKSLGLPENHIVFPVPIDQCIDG

FepA, sequence (P05825 23-746): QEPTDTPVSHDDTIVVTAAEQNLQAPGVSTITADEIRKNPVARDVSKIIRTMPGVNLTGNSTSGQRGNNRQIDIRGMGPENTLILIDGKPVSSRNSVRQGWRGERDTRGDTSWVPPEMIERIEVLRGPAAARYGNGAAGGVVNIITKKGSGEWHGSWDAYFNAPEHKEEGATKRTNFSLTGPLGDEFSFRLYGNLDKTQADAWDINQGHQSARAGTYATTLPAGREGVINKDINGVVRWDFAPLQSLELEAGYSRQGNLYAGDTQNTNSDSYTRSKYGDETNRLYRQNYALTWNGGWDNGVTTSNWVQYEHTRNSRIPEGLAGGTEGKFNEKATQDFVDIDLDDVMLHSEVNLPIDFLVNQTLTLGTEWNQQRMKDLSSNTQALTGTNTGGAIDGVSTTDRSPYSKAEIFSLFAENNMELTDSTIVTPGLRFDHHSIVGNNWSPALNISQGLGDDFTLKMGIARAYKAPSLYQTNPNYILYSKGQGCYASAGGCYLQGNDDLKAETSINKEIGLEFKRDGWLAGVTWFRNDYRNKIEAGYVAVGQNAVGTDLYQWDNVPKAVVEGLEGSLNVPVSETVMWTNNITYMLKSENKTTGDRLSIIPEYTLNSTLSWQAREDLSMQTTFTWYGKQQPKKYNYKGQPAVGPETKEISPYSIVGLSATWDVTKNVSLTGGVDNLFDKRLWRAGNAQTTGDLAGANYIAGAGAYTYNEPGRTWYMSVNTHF

Compound | growth enhancement of P. aeruginosa (pfeA-) [5] | growth inhibition of P. aeruginosa (pfeA-) [5] | growth restoration of E. coli (fepA-) (E. coli H1187 (fepA-)) | growth restoration of E. coli (fes-) [6] | other results
Vancomycin-PEG-Ent [conjugate 42] | – | – | – | – | effect on growth of P. aeruginosa (pvd-, pch-) ([1]; ±DP): growth inhibitory effect; effect on E. coli growth ([2]; +DP): inhibited the growth of E. coli
O=C(N[C@H]1COC(=O)[C@@H](NC(=O)c2cccc(O)c2O)COC(=O)[C@@H](NC(=O)c2cccc(O)c2O)COC1=O)c1cccc(O)c1O [L-Ent, Enterobactin] | no growth enhancement | growth inhibition at micromolar concentrations | – | – | decrease of percent survival of T84 cells [3]: approximately 30%; Ka for Fe(III) coordination [4]: ~10^49 M^−1; OD600 of P. aeruginosa (pvd-, pch-) culture ([1]; low-micromolar concentrations, 50% MHB, 600 μM DP, 30° C., t=19 h): ~0.40; OD600 of E. coli (ent-) culture ([2]; 50% MHB, 200 μM DP, 30° C., t=19 h): ~0.2
CC(C)(C)OC(=O)NCCOCCOCCOCCNC(=O)c1cc(O)c(O)c(C(=O)N[C@H]2COC(=O)[C@@H](NC(=O)c3cccc(O)c3O)COC(=O)[C@@H](NC(=O)c3cccc(O)c3O)COC2=O)c1 [conjugate 29, Tert-butyl(1-(3-(((3S,7S,11S)-7,11-bis(2,3-dihydroxybenzamido)-2,6,10-trioxo-1,5,9-trioxacyclododecan-3-yl)carbamoyl)-4,5-dihydroxyphenyl)-1-oxo-5,8,11-trioxa-2-azatridecan-13-yl)carbamate] | – | – | No growth restoration | No growth restoration | –
O=C(NCCOCCOCCOCCNC(=O)C1CCCCC1)c1cc(O)c(O)c(C(=O)N[C@H]2COC(=O)[C@@H](NC(=O)c3cccc(O)c3O)COC(=O)[C@@H](NC(=O)c3cccc(O)c3O)COC2=O)c1 [conjugate 30, N^3-((3S,7S,11S)-7,11-Bis(2,3-dihydroxybenzamido)-2,6,10-trioxo-1,5,9-trioxacyclododecan-3-yl)-N^1-(1-cyclohexyl-1-oxo-5,8,11-trioxa-2-azatridecan-13-yl)-4,5-dihydroxyisophthalamide] | no growth enhancement | growth inhibition at micromolar concentrations | No growth restoration | No growth restoration | –
O=C(N[C@H]1COC(=O)[C@@H](NC(=O)c2cccc([O-])c2[O-])COC(=O)[C@@H](NC(=O)c2cccc([O-])c2[O-])COC1=O)c1cccc([O-])c1[O-].[Fe+3] [ferric enterobactin] | – | – | – | – | affinity of FepA for ferric enterobactin (FepA): sub-nanomolar affinity; affinity of lcn2 for ferric enterobactin (Lipocalin-2 (lcn2)): low-nanomolar affinity
